Data published in PubChem BioAssay (NCI).
Where “and” joins values, the source holds several entries; their conditions need not be identical. Equal values may be shown once.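 Method: 48-hour compound exposure of cells in 96-well plates, five concentrations, linear interpolation of endpoints. Here, GI50 denotes the concentration required for 50% inhibition of growth. Definition used: TGI = concentration required for complete inhibition of growth.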

What was measured:
Test in all cases: growth of human tumour cells (NCI), 48 h
[1] = tested on: M14 melanoma
[2] = tested on: COLO 205 colon
[3] = tested on: SN12C renal
[4] = tested on: SF-295 CNS
[5] = tested on: SR leukemia
[6] = tested on: SK-MEL-28 melanoma
[7] = tested on: IGROV1 ovarian
[8] = tested on: CCRF-CEM leukemia
[9] = tested on: SF-268 CNS
[10] = tested on: T-47D breast

Compound: CC1(C)N=C(N)N=C(N)N1c1ccc(OCCCCNC(=O)Nc2cccc(S(=O)(=O)F)c2)c(Cl)c1
- GI50 [1]: 3.96 µM
- TGI [1]: > 100 µM
- GI50 [2]: 3.78 µM
- TGI [2]: > 100 µM
- GI50 [3]: 0.577 µM
- TGI [3]: > 100 µM
- GI50 [4]: 5.59 µM
- TGI [4]: > 100 µM
- GI50 [5]: 1.02 µM
- TGI [5]: > 100 µM
- GI50 [6]: 6.04 µM
- TGI [6]: > 100 µM
- GI50 [7]: 0.581 µM
- TGI [7]: > 100 µM
- GI50 [8]: 0.95 µM
- TGI [8]: > 100 µM
- GI50 [9]: 0.649 µM
- TGI [9]: > 100 µM
- GI50 [10]: 15.8 µM
- TGI [10]: > 100 µM

Compound: Oc1c(I)cc(Cl)c2cccnc12
- GI50 [1]: 2.08 µM
- TGI [1]: 4.37 µM
- GI50 [2]: 5.21 µM and 5.72 µM
- TGI [2]: 21.8 µM and 75.4 µM
- GI50 [3]: 3.27 µM and 4.82 µM
- TGI [3]: > 100 µM and 26.3 µM
- GI50 [4]: 2.62 µM and 22.2 µM
- GI50 [5]: 3.15 µM
- TGI [5]: 8.61 µM
- GI50 [6]: 3.75 µM and 6.69 µM
- TGI [6]: > 100 µM
- GI50 [7]: 3.91 µM and 13 µM
- TGI [7]: 24.2 µM and 36.5 µM
- GI50 [8]: 2.81 µM and 1.89 µM
- TGI [8]: 9.89 µM and 4.71 µM
- GI50 [9]: 3.86 µM and 6.22 µM
- TGI [9]: > 100 µM
- GI50 [10]: 4.16 µM and 8.7 µM
- TGI [10]: 28.7 µM and > 100 µM

Compound: CCN(CCNc1ccc(C)c2sc3cc(Cl)ccc3c(=O)c12)CC(C)(C)O
- GI50 [1]: 1.95 µM
- TGI [1]: 4.01 µM
- GI50 [2]: 1.89 µM
- TGI [2]: 3.94 µM
- GI50 [3]: 20.8 µM
- TGI [3]: > 100 µM
- GI50 [4]: 1.86 µM
- TGI [4]: 4.34 µM
- GI50 [5]: 9.48 µM
- TGI [5]: > 100 µM
- GI50 [6]: 2.09 µM
- TGI [6]: 4.34 µM
- GI50 [7]: 2.68 µM
- TGI [7]: 19.1 µM
- GI50 [8]: 7.5 µM
- TGI [8]: 61 µM
- GI50 [9]: 16.5 µM
- TGI [9]: 69.4 µM
- GI50 [10]: 11.8 µM
- TGI [10]: 37.5 µM

Compound: Cc1cc2c(cc1C)[n+](=O)c(C(=O)/C=C/c1ccccc1[N+](=O)[O-])c(C)n2[O-]
- TGI [1]: > 100 µM
- TGI [2]: > 100 µM
- TGI [3]: > 100 µM
- TGI [4]: 64.6 µM
- TGI [5]: > 95.7 µM
- TGI [6]: > 100 µM
- TGI [7]: > 100 µM
- TGI [8]: > 100 µM
- TGI [9]: 74.9 µM
- TGI [10]: > 100 µM

Compound: C=CC[PH+](c1ccccc1)c1ccccc1.C=CC[PH+](c1ccccc1)c1ccccc1.[Pt+2].[S-]c1ncccn1.[S-]c1ncccn1
- GI50 [1]: 5.67 µM
- TGI [1]: 31.9 µM
- GI50 [2]: 5.24 µM
- TGI [2]: 26.9 µM
- GI50 [3]: 13.5 µM
- TGI [3]: 48.6 µM
- GI50 [4]: > 100 µM
- TGI [4]: > 100 µM
- GI50 [5]: 3.11 µM
- TGI [5]: 60.7 µM
- GI50 [6]: 16.4 µM
- TGI [6]: 44.5 µM
- GI50 [7]: 15.1 µM
- TGI [7]: 43.8 µM
- GI50 [8]: 3.17 µM
- TGI [8]: > 100 µM
- GI50 [9]: 25.9 µM
- TGI [9]: > 100 µM
- GI50 [10]: 3.71 µM
- TGI [10]: 87.2 µM

Compound: Cc1ccccc1CNc1c2ccccc2nc2ccccc12
- GI50 [1]: 1.51 µM
- TGI [1]: 3.2 µM
- GI50 [2]: 1.6 µM
- TGI [2]: 3.5 µM
- GI50 [3]: 2.47 µM
- TGI [3]: 8.97 µM
- GI50 [4]: 2.67 µM
- TGI [4]: 11.8 µM
- GI50 [5]: 1.72 µM
- TGI [5]: 5.87 µM
- GI50 [6]: 2.15 µM
- TGI [6]: 5.02 µM
- GI50 [7]: 2 µM
- TGI [7]: 5.01 µM
- GI50 [8]: 1.97 µM
- TGI [8]: 12.6 µM
- GI50 [9]: 2.67 µM
- TGI [9]: 9.33 µM
- GI50 [10]: 2.08 µM
- TGI [10]: 5.93 µM

Compound: CCc1ccc(C2=NN(c3ccc(S(C)(=O)=O)cc3)C(=O)CC2)cc1
- GI50 [1]: 0.639 µM
- TGI [1]: > 100 µM
- GI50 [2]: 1.05 µM
- TGI [2]: 7.75 µM
- GI50 [3]: 7.34 µM
- TGI [3]: > 100 µM
- GI50 [4]: 0.904 µM
- TGI [4]: 8.54 µM
- GI50 [5]: 0.42 µM
- TGI [5]: 21.7 µM
- GI50 [6]: 1.59 µM
- TGI [6]: > 100 µM
- GI50 [7]: 2.71 µM
- TGI [7]: > 74.3 µM
- GI50 [8]: 1.23 µM
- TGI [8]: > 21.6 µM
- GI50 [9]: 3.11 µM
- TGI [9]: > 100 µM
- GI50 [10]: 4.44 µM
- TGI [10]: 98.1 µM

Compound: Cc1ccc(NC(=O)c2ccc(NC3=C(Cl)C(=O)N(Cc4ccccc4)C3=O)cc2)cc1Cl
- GI50 [1]: 17.6 µM
- TGI [1]: 55.1 µM
- GI50 [2]: 13.5 µM
- TGI [2]: > 100 µM
- GI50 [3]: 3.87 µM
- TGI [3]: 20.5 µM
- GI50 [4]: 19.9 µM
- TGI [4]: > 100 µM
- GI50 [5]: 0.864 µM
- TGI [5]: 2.98 µM
- GI50 [6]: 24.2 µM
- TGI [6]: > 100 µM
- GI50 [7]: 0.49 µM
- TGI [7]: 2.64 µM
- GI50 [8]: 1.02 µM
- TGI [8]: 3.54 µM
- GI50 [9]: 12.4 µM
- TGI [9]: 33.7 µM
- GI50 [10]: 2.8 µM
- TGI [10]: 14.5 µM

Compound: Cc1n(Cc2ccc3ccccc3n2)cc[n+]1Cc1ccc2ccccc2c1
- GI50 [1]: 1.13 µM
- TGI [1]: 10.7 µM
- GI50 [2]: 0.302 µM
- TGI [2]: 1.1 µM
- GI50 [3]: 0.518 µM
- TGI [3]: 11 µM
- GI50 [4]: 1.47 µM
- TGI [4]: 7.62 µM
- GI50 [5]: 0.565 µM
- TGI [5]: 3.24 µM
- GI50 [6]: 0.975 µM
- TGI [6]: 7 µM
- GI50 [7]: 1.12 µM
- TGI [7]: 4.76 µM
- GI50 [8]: 1.07 µM
- TGI [8]: 11.5 µM
- GI50 [9]: 0.784 µM
- TGI [9]: 14 µM
- GI50 [10]: 0.371 µM
- TGI [10]: 7.22 µM

Compound: COc1cc(OC)c(/C=C/C(=O)c2c(N)cc(OC)cc2OC)c(OC)c1
- GI50 [1]: 0.349 µM
- TGI [1]: > 100 µM
- GI50 [2]: 2.94 µM
- TGI [2]: > 45.1 µM
- GI50 [3]: 0.719 µM
- TGI [3]: > 100 µM
- GI50 [4]: 0.397 µM
- GI50 [5]: 0.242 µM
- TGI [5]: > 100 µM
- GI50 [6]: 2.18 µM
- TGI [6]: > 100 µM
- GI50 [7]: 0.797 µM
- TGI [7]: > 100 µM
- GI50 [8]: 1.26 µM
- TGI [8]: > 100 µM
- GI50 [9]: 0.609 µM
- TGI [9]: > 100 µM
- GI50 [10]: 0.478 µM
- TGI [10]: > 100 µM

Compound: CCN(CC)CCS(=O)(=O)CCNc1ccnc2cc(Cl)ccc12
- GI50 [1]: 2.53 µM
- TGI [1]: 9.33 µM
- GI50 [2]: 2.66 µM
- TGI [2]: 8.31 µM
- GI50 [3]: 3.25 µM
- TGI [3]: > 100 µM
- GI50 [4]: 8.38 µM
- TGI [4]: > 64 µM
- GI50 [5]: 0.812 µM
- TGI [5]: > 46.3 µM
- GI50 [6]: 4.97 µM
- TGI [6]: 25.7 µM
- GI50 [7]: 2.26 µM
- TGI [7]: 16.7 µM
- GI50 [8]: 0.663 µM
- TGI [8]: > 38.6 µM
- GI50 [9]: 2.86 µM
- TGI [9]: > 49.5 µM
- GI50 [10]: 6.23 µM
- TGI [10]: 48.8 µM

Compound: CC(C)CCCC(C)[C@H]1CCC2[C@@H]3CCC4Cc5nc6c(nc5C[C@]4(C)C3CC[C@@]21C)CC1CC[C@@H]2C(CC[C@@]3(C)C2CC[C@@H]3O)[C@@]1(C)C6 (stereo partly drawn)
- TGI [1]: > 100 µM
- TGI [2]: > 100 µM
- TGI [3]: > 100 µM
- TGI [4]: > 100 µM
- TGI [5]: > 100 µM
- TGI [6]: > 100 µM
- TGI [7]: > 100 µM
- TGI [8]: > 100 µM
- TGI [9]: > 100 µM
- TGI [10]: > 100 µM

Compound: O=c1c2ccccc2n2cnc3ccc(NCCNCCO)c1c32
- TGI [1]: 8.07 µM
- TGI [2]: 5.09 µM
- TGI [3]: 17 µM
- TGI [4]: 9.2 µM
- TGI [5]: > 33.6 µM
- TGI [6]: 11 µM
- TGI [7]: 9.59 µM
- TGI [8]: > 47.3 µM
- TGI [9]: 8.01 µM
- TGI [10]: 22.2 µM
